Data published in article PMC11859184, “Synthesis and Evaluation of ^68Ga- and ^177Lu-Labeled [diF-Pro^14]Bombesin(6−14) Analogs for Detection and Radioligand Therapy of Gastrin-Releasing Peptide Receptor-Expressing Cancer” (Pharmaceuticals, 2025).

Key:
PC-3 tumor-bearing mice [1] = assay: Ex vivo biodistribution of 68Ga-labeled tracers in PC-3 tumor-bearing mice; settings: 1 h pi; for reduction of average tumor uptake by co-injection of blocking agent: 100 µg blocking agent
Experimental: PET/CT imaging and biodistribution studies were conducted using male NOD.Cg-Rag1^tm1Mom Il2rg^tm1Wjl/SzJ (NRG) mice following previously published procedures. The studies were carried out in compliance with the guidelines established by the Canadian Council on Animal Care and approved by Animal Ethics Committee of the University of British Columbia (protocol number A20-0113, approved on 30 September 2022). The mice were anaesthetized and subcutaneously implanted with 5 × 10^6 PC-3 cells (100 µL; 1:1 PBS/Matrigel) behind the left shoulder. PET/CT imaging and biodistribution studies were performed once the tumors reached a diameter of 5–8 mm, typically after approximately 4 weeks of growth.
For ex vivo biodistribution studies, the mice were injected with the ^68Ga-labeled tracer (2–4 MBq) via a lateral caudal tail vein. For blocking [^68Ga]Ga-LW02060, the mice were co-injected with 100 μg of [D-Phe^6,Leu-NHEt^13,des-Met^14]Bombesin(6–14). For blocking [^68Ga]Ga-LW02080, the mice were co-injected with 100 μg of its nonradioactive standard Ga-LW02080. At 1 h pi, the mice were euthanized by CO2 inhalation. Blood and organs/tissues of interest were collected, weighed, and counted using a gamma counter.

[2] = In vivo stability study (radio-HPLC of plasma and urine); settings: NRG mice, 15 min pi; for remaining intact in plasma: n = 3
Experimental: For in vivo stability studies, [^68Ga]Ga-LW02060 or [^68Ga]Ga -LW02080 (5.23–12.9 MBq) was injected into healthy male NRG mice (n = 3) tough a lateral caudal tail vein. At 15 min pi, mice were anaesthetized and euthanized, followed by collection of the urine and blood samples. The plasma was extracted from whole blood by adding an equal volume of CH3CN, followed by vortexing, centrifugation, and collection of the supernatant. The plasma and urine samples were analyzed via radio-HPLC.

PC-3 tumor-bearing mice [3] = assay: Ex vivo biodistribution of 177Lu-labeled ligands in PC-3 tumor-bearing mice; settings: 1 h pi, 100 µg [D-Phe6,Leu-NHEt13,des-Met14]Bombesin(6-14)
Experimental: SPECT/CT imaging was conducted using an MI Labs (Houten, The Netherlands) U-SPECT-II/CT scanner with a custom-made ultra-high sensitivity big mouse collimator (2 mm pinhole size) following published procedure. The experiments were obtained in accordance with the same protocol established in the PET/CT imaging and ex vivo biodistributions section. The mice were used for SPECT/CT imaging and ex vivo biodistributions studies once the tumors reached a diameter of 5–8 mm. PC-3 tumor-bearing mice were sedated (2.5% isoflurane in O2) and injected with 31.4–36.9 MBq of the ^177Lu-labeled ligand through a lateral caudal tail vein. The mouse was imaged at 1, 4, 24, 72, and 120 h pi. At each time point, a 5 min CT scan was performed with 615 μA and 60 kV parameters for localization and attenuation, followed by two 30 min static SPECT scans in list mode with an energy window centered around 208 keV. The U-SPECT II software was used to reconstruct data, and the images were decay corrected to the time of injection with PMOD v 3.402 (PMOD Technologies GmbH, Fallanden, Switzerland).
For ex vivo biodistribution studies, the mice were injected with ~3–5 MBq of the ^177Lu-labeled ligand (n = 5). At 1, 4, 24, 72, and 120 h post-injection, the mice were anesthetized with 2% isoflurane, euthanized by CO2 inhalation, and the tissues/organs of interest were […] for radioactivity counting. The blocking study was performed at 1 h pi via co-injection of the ^177Lu-labeled ligand with 100 μg of [D-Phe^6,Leu-NHEt^13,des-Met^14]Bombesin(6–14).

GRPR = biological target: T1, GRPR (Homo sapiens, UniProt P30550); assay: Fluorometric intracellular calcium release assay using PC-3 cells; format: cell-based; settings: 50 nM ligand, n = 4
T1 construct: host or cells: PC-3 cells
T1 sequence (P30550 whole entry): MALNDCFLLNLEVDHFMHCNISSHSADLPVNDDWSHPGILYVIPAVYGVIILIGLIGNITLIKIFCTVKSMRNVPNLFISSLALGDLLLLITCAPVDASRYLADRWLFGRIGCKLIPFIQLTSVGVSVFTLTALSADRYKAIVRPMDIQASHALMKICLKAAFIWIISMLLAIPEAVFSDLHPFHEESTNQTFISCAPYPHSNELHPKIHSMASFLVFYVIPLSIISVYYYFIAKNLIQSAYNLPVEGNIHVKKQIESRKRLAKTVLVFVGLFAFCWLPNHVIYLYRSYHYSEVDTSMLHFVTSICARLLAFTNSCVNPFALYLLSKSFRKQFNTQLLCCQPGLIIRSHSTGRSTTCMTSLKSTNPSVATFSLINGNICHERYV
Experimental: The agonist/antagonist characteristics of LW02060, Ga-LW02060, Lu-LW02060, LW02080, Ga-LW02080, and Lu-LW02080 were determined following published procedures. The PC-3 cells were obtained from ATCC (via Cedarlane, Burlington, ON, Canada). A 96-well clear bottom black plate was seeded with 5 × 10^4 PC-3 cells in 100 μL growth media per well 24 h before the assay. The loading buffer (100 μL/well) containing a calcium-sensitive dye (FLIPR Calcium 6 assay kit from Molecular Devices, San Jose, CA, USA) was added into the 96-well plate, followed by 1 h incubation at 37 °C. The plate was then transferred into a FlexStation 3 microplate reader (Molecular Devices, San Jose, CA, USA). LW02060 (50 nM), Ga-LW02060 (50 nM), Lu-LW02060 (50 nM), LW02080 (50 nM), Ga-LW02080 (50 nM), Lu-LW02080 (50 nM), [D-Phe^6,Leu-NHEt^13,des-Met^14]Bombesin(6–14) (50 nM, antagonist control), bombesin (50 nM, agonist control), adenosine triphosphate (ATP, 50 nM, positive control), or DPBS (blank control) was added, and the fluorescent signals were measured for 2 min (λEx = 485 nm; λEm = 525 nm; n = 4). The relative fluorescent units (RFU = max − min) were calculated to determine the agonistic/antagonistic characteristics of LW02060, Ga-LW02060, Lu-LW02060, LW02080, Ga-LW02080, and Lu-LW02080, respectively.

uptake in all other collected organs/tissues (except tumor xenografts and kidneys) (PC-3 tumor-bearing mice [1]) | intact tracer in urine [2] | remaining intact in plasma [2] | intracellular calcium release (GRPR) | Molecule | reduction of average tumor uptake by co-injection of blocking agent (PC-3 tumor-bearing mice [1]) | reduction of tumor uptake by co-injection of blocking agent (PC-3 tumor-bearing mice [3]) | also measured
lower than 1 %ID/g | No intact tracer was detected | > 99% |  | CC(C)C[C@H](NC(=O)[C@H](Cc1cnc[nH]1)N(C)C(=O)CNC(=O)[C@@H](NC(=O)[C@H](C)NC(=O)[C@H](Cc1c[nH]c2ccccc12)NC(=O)[C@H](CCC(N)=O)NC(=O)[C@@H](Cc1ccccc1)NC(=O)CN1CCC(NC(=O)CN2CCN(CC(=O)O)CCN(CC(=O)O)CCN(CC(=O)O)CC2)CC1)C(C)(C)C)C(=O)N1CC(F)(F)C[C@H]1C(N)=O [[^68Ga]Ga-LW02060] [metal not drawn] | 64% |  | tumor uptake relative to [68Ga]Ga-LW02080 (PC-3 tumor-bearing mice [1]): 2.3 fold; tumor uptake relative to previously reported [68Ga]Ga-LW02056 (PC-3 tumor-bearing mice [1]): 1.9 fold
lower than 1 %ID/g | No intact tracer was detected | 87.4 ± 5.34% |  | CC(C)C[C@@H](CN1CC(F)(F)C[C@H]1C(N)=O)NC(=O)[C@H](Cc1c[nH]cn1)NC(=O)CN(C)C(=O)[C@@H](NC(=O)[C@H](C)NC(=O)[C@H](Cc1c[nH]c2ccccc12)NC(=O)[C@H](CCC(N)=O)NC(=O)[C@@H](Cc1ccccc1)NC(=O)CN1CCC(NC(=O)CN2CCN(CC(=O)O)CCN(CC(=O)O)CCN(CC(=O)O)CC2)CC1)C(C)C [[^68Ga]Ga-LW02080] [metal not drawn] | 77% |  | 
 |  |  | 371 ± 17.9 RFU | bombesin [reference compound] |  |  | 

The next lines start with the molecule.

Molecule | uptake in all other collected organs/tissues (except tumor xenografts and kidneys) (PC-3 tumor-bearing mice [1]) | intact tracer in urine [2] | remaining intact in plasma [2] | intracellular calcium release (GRPR) | reduction of average tumor uptake by co-injection of blocking agent (PC-3 tumor-bearing mice [1]) | reduction of tumor uptake by co-injection of blocking agent (PC-3 tumor-bearing mice [3]) | also measured
CC(C)C[C@H](NC(=O)[C@H](Cc1cnc[nH]1)N(C)C(=O)CNC(=O)[C@@H](NC(=O)[C@H](C)NC(=O)[C@H](Cc1c[nH]c2ccccc12)NC(=O)[C@H](CCC(N)=O)NC(=O)[C@@H](Cc1ccccc1)NC(=O)CN1CCC(NC(=O)CN2CCN(CC(=O)O)CCN(CC(=O)O)CCN(CC(=O)O)CC2)CC1)C(C)(C)C)C(=O)N1CC(F)(F)C[C@H]1C(N)=O [[^177Lu]Lu-LW02060] [metal not drawn] |  |  |  |  |  | 66% | reduction of pancreas uptake by co-injection of blocking agent (PC-3 tumor-bearing mice [3]): 81%; reduction of small intestine uptake by co-injection of blocking agent (PC-3 tumor-bearing mice [3]): 66%; reduction of stomach uptake by co-injection of blocking agent (PC-3 tumor-bearing mice [3]): 72%
CC(C)C[C@@H](CN1CC(F)(F)C[C@H]1C(N)=O)NC(=O)[C@H](Cc1c[nH]cn1)NC(=O)CN(C)C(=O)[C@@H](NC(=O)[C@H](C)NC(=O)[C@H](Cc1c[nH]c2ccccc12)NC(=O)[C@H](CCC(N)=O)NC(=O)[C@@H](Cc1ccccc1)NC(=O)CN1CCC(NC(=O)CN2CCN(CC(=O)O)CCN(CC(=O)O)CCN(CC(=O)O)CC2)CC1)C(C)C [[^177Lu]Lu-LW02080] [metal not drawn] |  |  |  |  |  | 64% | 
[D-Phe^6,Leu-NHEt^13,des-Met^14]Bombesin(6–14) [reference compound] |  |  |  | 16.6 ± 3.84 RFU |  |  | 
